Reference: patent US7932262B2 (Novartis AG, priority 2006, dated 2011)
pEC50, pIC50: −log10 of the molar value. Where two headings read alike, the source gives them in different places.

Key:
PDK1 kinase = biological target: T1, PDK1 kinase (Homo sapiens, UniProt O15530); assay: PDK1 Kinase Alpha Screen Assay; assay type: biochemical; settings: read-out: PDK1 IC50
T1 sequence (O15530 1-556): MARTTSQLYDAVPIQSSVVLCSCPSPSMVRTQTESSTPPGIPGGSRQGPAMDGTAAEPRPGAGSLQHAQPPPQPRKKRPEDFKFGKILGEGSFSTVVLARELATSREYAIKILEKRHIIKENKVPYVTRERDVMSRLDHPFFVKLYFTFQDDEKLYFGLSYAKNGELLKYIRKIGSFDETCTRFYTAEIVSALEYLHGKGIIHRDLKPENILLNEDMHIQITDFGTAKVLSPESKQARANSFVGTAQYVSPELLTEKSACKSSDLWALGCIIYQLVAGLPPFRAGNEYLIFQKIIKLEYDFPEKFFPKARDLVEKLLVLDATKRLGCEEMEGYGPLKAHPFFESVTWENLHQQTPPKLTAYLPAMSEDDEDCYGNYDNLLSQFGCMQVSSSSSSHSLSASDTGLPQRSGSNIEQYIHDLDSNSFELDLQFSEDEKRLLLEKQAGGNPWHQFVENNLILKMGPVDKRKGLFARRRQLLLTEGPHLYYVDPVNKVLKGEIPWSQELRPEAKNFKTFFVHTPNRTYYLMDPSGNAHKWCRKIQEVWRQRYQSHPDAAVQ
How it was run: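 Biotinylated PDK1-4 peptide (50 nM) phosphorylated by PDK1 with 10 uM ATP in pH 7.5 Tris/MgCl2/DTT buffer, 2.5% DMSO, for 3-18 hours. EDTA stop, then AlphaScreen detection with phospho-(Ser/Thr) PKA substrate antibody and protein A/streptavidin beads after overnight room-temperature development.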

PC-3 cells = assay: Cell Proliferation Assay (Cell Titer Glo), PC-3 cell line; assay type: cell-based; settings: Homo sapiens, read-out: CPEC50 PC3
How it was run: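 PC-3 cells, 1000 cells/well, left to adhere 3-5 h, then exposed for 3 days at 37° C to compounds as 1:3 serial dilutions from 500× DMSO stocks diluted in growth medium. Medium then replaced with fresh medium and viability read by Cell Titer Glo luminescence.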

[1] = PC-3, Cell Proliferation Assay, PC3

SMILES	pIC50 (PDK1 kinase)	pEC50 (PC-3 cells; PC-3, PC3 cells)	pIC50 (PDK1 kinase; PDK1 Kinase Alpha Screen Assay)	pEC50 (PC-3 cells; [1])
NS(=O)(=O)c1ccc(Nc2ncc3cccc(-c4cncc(C(=O)N5CCOCC5)c4)c3n2)cc1 [Compound 984, 4-(8-(5-(morpholine-4-carbonyl)pyridin-3-yl)quinazolin-2-ylamino)benzenesulfonamide]	> 5.30	5.00 to 5.30	–	–
CN1CCC(Nc2ccc3cnc(Nc4ccc(N5CCOCC5)cc4)nc3c2)CC1 [Compound 369, N7-(1-methylpiperidin-4-yl)-N2-(4-morpholinophenyl)quinazoline-2,7-diamine]	–	–	> 5.30	5.00 to 5.30
CCN1CCC[C@@H]1CNc1ccc(-c2cccc3cnc(Nc4ccc(S(N)(=O)=O)cc4)nc23)cn1 [Compound 974, (R)-4-(8-(6-((1-ethylpyrrolidin-2-yl)methylamino)pyridin-3-yl)quinazolin-2-ylamino)benzenesulfonamide]	> 5.30	> 5.30	–	–
O=S(=O)(c1ccc(Nc2ncc3cccc(-c4ccc(NCCN5CCCC5)nc4)c3n2)cc1)N1CCOCC1 [Compound 425, N-(4-(morpholinosulfonyl)phenyl)-8-(6-(2-(pyrrolidin-1-yl)ethylamino)pyridine-3-yl)quinazolin-2-amine]	–	–	> 5.30	> 5.30
CC(C)N1CCC(Oc2cc(C3CC3)cc3cnc(Nc4ccc(N5CCOCC5)cc4)nc23)CC1 [Compound 704, 6-cyclopropyl-8-(1-isopropylpiperidin-4-yloxy)-N-(4-morpholinophenyl)quinazolin-2-amine]	–	–	> 5.30	> 5.30
NS(=O)(=O)c1ccc(Nc2ncc3cc(C(F)(F)F)cc(-c4ccc(N5CCNC(=O)C5)nc4)c3n2)cc1 [Compound 965, 4-(8-(6-(3-oxopiperazin-1-yl)pyridin-3-yl)-6-(trifluoromethyl)quinazolin-2-ylamino)benzenesulfonamide]	> 5.30	> 5.30	–	–
O=C(c1ccc(Nc2ncc3cccc(OC4CCNCC4)c3n2)cc1F)N1CCCC1 [Compound 477, (2-fluoro-4-(8-(piperidin-4-yloxy)quinazolin-2-ylamino)phenyl)(pyrrolidin-1-yl)methanone]	–	–	> 5.30	> 5.30
NS(=O)(=O)c1ccc(Nc2ncc3cccc(CNCCN4CCCC4)c3n2)cc1 [Compound 935, 4-(8-((2-(pyrrolidin-1-yl)ethylamino)methyl)quinazolin-2-ylamino)benzenesulfonamide]	> 5.30	5.00 to 5.30	–	–
c1ncc(-c2ccc(Nc3ncc4ccc(OC5CCNCC5)cc4n3)cc2)o1 [Compound 584, N-(4-(oxazol-5-yl)phenyl)-7-(piperidin-4-yloxy)qinazolin-2-amine]	–	–	> 5.30	> 5.30
Fc1ccc(Nc2ncc3ccc(OC4CCNCC4)cc3n2)cc1-c1cnoc1 [Compound 592, N-(4-fluoro-3-(isoxazol-4-yl)phenyl)-7-(piperidin-4-yloxy)quinazolin-2-amine]	–	–	> 5.30	5.00 to 5.30
CN1CCC(CNc2ccc3cnc(Nc4ccc(C(=O)N5CCOCC5)cc4)nc3c2)CC1 [Compound 348]	–	–	> 5.30	5.00 to 5.30
O=S(=O)(c1ccc(Nc2ncc3ccc(OC4CCNCC4)cc3n2)cc1)N1CCOCC1 [Compound 332]	–	–	> 5.30	> 5.30
Fc1ccc(Nc2ncc3ccc(OC4CCNCC4)cc3n2)cc1Br [Compound 589, N-(3-bromo-4-fluorophenyl)-7-(piperidin-4-yloxy)quinazolin-2-amine]	–	–	> 5.30	> 5.30
CN(C)C(=O)c1cc(Nc2ncc3cccc(OC4CCNCC4)c3n2)ccc1F [Compound 473, 2-fluoro-N,N-dimethyl-5-(8-(piperidin-4-yloxy)quinazolin-2-ylamino)benzamide]	–	–	> 5.30	> 5.30
FC(F)(F)c1cccc(Nc2ncc3ccc(OC4CCNCC4)cc3n2)c1 [Compound 569, 7-(piperidin-4-yloxy)-N-(3-(trifluoromethyl)phenyl)quinazolin-2-amine]	–	–	> 5.30	> 5.30
Fc1cccc(Nc2ncc3c(Br)ccc(OC4CCNCC4)c3n2)c1 [Compound 433, 5-bromo-N-(3-fluorophenyl)-8-(piperidin-4-yloxy)quinazolin-2-amine]	–	–	> 5.30	> 5.30
NS(=O)(=O)c1ccc(Nc2ncc3cccc(-c4cncc(CN5CCNC(=O)C5)c4)c3n2)cc1 [Compound 944, 4-(8-(5-((3-oxopiperazin-1-yl)methyl)pyridin-3-yl)quinazolin-2-ylamino)benzenesulfonamide]	> 5.30	5.00 to 5.30	–	–

SMILES	pIC50 (PDK1 kinase)	pEC50 (PC-3 cells; PC-3, PC3 cells)	pIC50 (PDK1 kinase; PDK1 Kinase Alpha Screen Assay)	pEC50 (PC-3 cells; [1])
CC(C)N1CCC(Oc2cc(Br)cc3cnc(Nc4ccc(F)cc4)nc23)CC1 [Compound 389, 6-bromo-N-(4-fluorophenyl)-8-(1-isopropylpiperidin-4-yloxy)quinazolin-2-amine]	–	–	> 5.30	> 5.30
CN(C)[C@@H]1CCN(C(=O)c2cncc(-c3cccc4cnc(Nc5ccc(S(N)(=O)=O)cc5)nc34)c2)C1 [Compound 976, (R)-4-(8-(5-(3-(dimethylamino)pyrrolidine-1-carbonyl)pyridin-3-yl)quinazolin-2-ylamino)benzenesulfonamide]	> 5.30	5.00 to 5.30	–	–
NS(=O)(=O)c1ccc(Nc2ncc3cccc(-c4cncc(CN5CCOCC5)c4)c3n2)cc1 [Compound 942, 4-(8-(5-(morpholinomethyl)pyridin-3-yl)quinazolin-2-ylamino)benzenesulfonamide]	> 5.30	> 5.30	–	–
COc1cccc(Nc2ncc3cccc(-c4ccc(NCCN5CCCC5)nc4)c3n2)c1 [Compound 395, N-(3-methoxyphenyl)-8-(6-(2-(pyrrolidin-1-yl)ethylamino)pyridin-3-yl)quinazolin-2-amine]	–	–	> 5.30	> 5.30
CC(C)NC(=O)c1cc(Nc2ncc3cccc(OC4CCNCC4)c3n2)cc(C(F)(F)F)c1 [Compound 453, N-isopropyl-3-(8-(piperidin-4-yloxy)quinazolin-2-ylamino)-5-(trifluoromethyl)benzamide]	–	–	> 5.30	> 5.30
Fc1ccc(Nc2ncc3cccc(-c4ccc(NCCN5CCCC5)nc4)c3n2)cc1 [Compound 994, N-(4-fluorophenyl)-8-(6-(2-(pyrrolidin-1-yl)ethylamino)pyridin-3-yl)quinazolin-2-amine]	> 5.30	> 5.30	–	–
c1cc(N2CCOCC2)ccc1Nc1ncc2cc(C3CC3)cc(OC3CCNCC3)c2n1 [Compound 703, 6-cyclopropyl-N-(4-mropholinophenyl)-8-(piperidin-4-yloxy)quinazolin-2-amine]	–	–	> 5.30	> 5.30
O=C(c1ccc(Nc2ncc3cc(C4CC4)c(OC4CCNCC4)cc3n2)cc1)N1CCOCC1 [Compound 642, (4-(6-cyclopropyl-7-(piperidin-4-yloxy)quinazolin-2-ylamino)phenyl)(morpholino)methanone]	–	–	> 5.30	> 5.30
Cc1ccc(OC2CCN(C(C)C)CC2)c2nc(Nc3ccc(S(=O)(=O)NC(C)C)cc3)ncc12 [Compound 360, N-isopropyl-4-(8-(1-isopropylpiperidin-4-yloxy)-5-methylquinazolin-2-ylamino)benzenesulfonamide]	–	–	> 5.30	> 5.30
CN(C)C(=O)c1ccc(Nc2ncc3cccc(OC4CCNCC4)c3n2)cc1F [Compound 446, 2-fluoro-N,N-dimethyl-4-(8-(piperidin-4-yloxy)quinazolin-2-ylamino)benzamide]	–	–	> 5.30	> 5.30
N#Cc1cc(OC2CCNCC2)c2nc(Nc3ccc(N4CCOCC4)cc3)ncc2c1 [Compound 701, 2-(4-morpholinophenylamino)-8-(piperidin-4-yloxy)quinazoline-6-carbonitrile]	–	–	> 5.30	> 5.30
CC(=O)Nc1ccc(Nc2ncc3cccc(-c4ccc(NCCN5CCCC5)nc4)c3n2)cc1 [Compound 396, N-(4-(8-(6-(2-(pyrrolidin-1-yl)ethylamino)pyridin-3-yl)quinazolin-2-ylamino)phenyl)acetamide]	–	–	> 5.30	5.00 to 5.30
COc1cc(C(=O)NC2CCN(C)CC2)ccc1Nc1ncc2c(C)ccc(OC3CCNCC3)c2n1 [Compound 375, 3-methoxy-4-(5-methyl-8-(piperidin-4-yloxy)quinazolin-2-ylamino)-N-(1-methylpiperidin-4-yl)benzamide]	–	–	5.00 to 5.30	5.00 to 5.30
O=C(O)c1ccc(Nc2ncc3cccc(OC4CCNCC4)c3n2)cc1 [Compound 488, 4-(8-(piperidin-4-yloxy)quinazolin-2-ylamino)benzoic acid]	–	–	> 5.30	> 5.30
O=C(O)c1cc(Nc2ncc3cccc(OC4CCNCC4)c3n2)cc(C(F)(F)F)c1 [Compound 450]	–	–	> 5.30	5.00 to 5.30
O=S(=O)(c1ccc(Nc2ncc3c(Br)ccc(OC4CCNCC4)c3n2)cc1)N1CCOCC1 [Compound 430, 5-bromo-N-(4-(morpholinosulfonyl)phenyl)-8-(piperidin-4-yloxy)quinazolin-2-amine]	–	–	> 5.30	> 5.30
